Assay results: patent US20110092476A1, “Bicycloheteroaryl compounds as P2X7 modulators and uses thereof” (Renovis, Inc., priority 2006, published 2011)
pIC50: −log10 of the molar value.

Biological target: T1, P2X7 receptor (Homo sapiens, UniProt Q99572)
T1 construct: host or cells: THP-1 cells differentiated with LPS and IFN-γ
T1 sequence (Q99572 1-595): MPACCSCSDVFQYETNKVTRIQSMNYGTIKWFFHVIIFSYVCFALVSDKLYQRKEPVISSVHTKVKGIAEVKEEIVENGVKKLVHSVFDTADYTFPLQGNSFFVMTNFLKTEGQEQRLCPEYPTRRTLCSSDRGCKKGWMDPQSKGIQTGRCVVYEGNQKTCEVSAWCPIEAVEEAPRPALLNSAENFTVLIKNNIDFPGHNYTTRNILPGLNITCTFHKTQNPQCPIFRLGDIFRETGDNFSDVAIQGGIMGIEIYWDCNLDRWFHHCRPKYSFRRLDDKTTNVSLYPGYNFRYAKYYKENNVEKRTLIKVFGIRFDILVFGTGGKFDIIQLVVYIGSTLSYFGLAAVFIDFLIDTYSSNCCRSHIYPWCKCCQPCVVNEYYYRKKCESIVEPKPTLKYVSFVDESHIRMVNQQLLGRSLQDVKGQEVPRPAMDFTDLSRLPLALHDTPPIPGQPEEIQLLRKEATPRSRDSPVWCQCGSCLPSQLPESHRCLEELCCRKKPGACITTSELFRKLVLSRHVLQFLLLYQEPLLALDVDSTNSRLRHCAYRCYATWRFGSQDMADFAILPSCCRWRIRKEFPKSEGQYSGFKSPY
Experiment: IL-1β release assay in differentiated THP-1 cells stimulated with BzATP (Example 9)
Assay type: cell-based
Details: 0.1 μM compound (symbols *); differentiated THP-1 cells, BzATP 250 uM; read-out: IL-1β % Inhib. @ 0.3 or 0.1 uM
Experimental: THP-1 cells (ATCC Cat #285-IF-100) are plated in 96 well plates at a concentration of 200,000 cells per well and allowed to differentiate in RPMI-1640 media (ATCC Cat #30-2001) containing 10% FBS, 100 IU/mL penicillin, 100 ug/mL streptomycin, 100 ng/mL LPS and 100 ng/mL IFN-γ for 16 hours. Following differentiation, the cells are treated for an additional 2 hours in RPMI-1640 media containing 100 IU/mL penicillin, 100 ug/mL streptomycin and fresh LPS at 100 ng/mL. The cells are then pretreated for 30 minutes with the compound of interest at the appropriate concentration in RPMI media containing 100 IU/mL penicillin, 100 ug/mL streptomycin. Following the pretreatment 2′,3′-O-(4-benzoylbenzoyl)-adenosine 5′-triphosphate (Sigma Aldrich Cat #B6396) is added to a final concentration of 250 uM and the cells are incubated for an additional 45 minutes. 30 uL of cell supernatant is then collected and IL-1β levels determined via ELISA (R&D systems Cat. #HSLB50) according to manufacturer's recommendations using the Tecan Safire plate reader. Background adjusted IL-1β levels of drug treated and non-treated cells are used to calculate the percent inhibition.
The compounds set forth in Table 1 were tested for activity in a cellular model as described herein. Specifically, cells were pretreated with differing amounts of the compound under test and released IL-1β determined as in Example 9, above. Measurements were made and IC50 values, presented in Table 2, below, were determined by fitting the data to a four parameter logistic equation using GraphPad Prism software (GraphPad Software, Inc). The equation may be expressed by the following formula:
Y=Bottom+(Top−Bottom)/(1+10̂((Log EC50−X)*HillSlope))
Where X is the logarithm of concentration, Y is the response and Y starts at Bottom and goes to Top with a sigmoid shape.

inhibition at 0.1 µM [%]	SMILES
0 to 25	COc1cc(CC(=O)Nc2cccc3c(=O)n(C(C)CO)ccc23)cc(OC)c1 (centres unmarked) [Compound 114]
0 to 25	Cc1ccc(C)c(C(=O)Nc2cccc3c(=O)n(C(C)CO)ccc23)c1 (centres unmarked) [Compound 100]
0 to 25	Cc1cc(Cl)ccc1C(=O)Nc1cccc2c(=O)n(CC(C)O)ccc12 (centres unmarked) [Compound 169]
0 to 25	Cc1cc(C(=O)Nc2cccc3c(=O)n(CC(C)O)ccc23)ccc1F (centres unmarked) [Compound 175]
0 to 25	Cc1cccc(C(=O)Nc2cccc3c(=O)n(CC(C)O)ccc23)c1C (centres unmarked) [Compound 140]
0 to 25	COc1cc(OC)cc(C(=O)Nc2cccc3c(=O)n(CC4(O)CCCCC4)ccc23)c1 [Compound 19]
0 to 25	COc1ccc(C(=O)Nc2cccc3c(=O)n(CC(C)(C)O)ccc23)c(C)c1 [Compound 186]
0 to 25	Cc1cc(C(=O)Nc2cccc3c(=O)n(CC(C)O)ccc23)ccc1Cl (centres unmarked) [Compound 135]
0 to 25	CC(O)Cn1ccc2c(NC(=O)c3ccc(Cl)cc3Cl)cccc2c1=O (centres unmarked) [Compound 137]
0 to 25	CCOc1ccc(C(=O)Nc2cccc3c(=O)n(CC(C)(C)O)ccc23)c(O)c1 [Compound 185]
0 to 25	CC(CO)n1ccc2c(NC(=O)c3cc(Cl)ccc3Cl)cccc2c1=O (centres unmarked) [Compound 97]
0 to 25	COc1cc(CC(=O)Nc2cccc3c(=O)n(CC(C)O)ccc23)cc(OC)c1 (centres unmarked) [Compound 166]
0 to 25	O=C(Nc1cccc2c(=O)n(CC3(O)CCCCC3)ccc12)c1ccc(-c2ccccc2)o1 [Compound 9]
26 to 50	COc1ccc(C(=O)Nc2cccc3c(=O)n(CC(C)O)ccc23)cc1C (centres unmarked) [Compound 183]
0 to 25	COc1ccc(CC(=O)Nc2cccc3c(=O)n(CC(C)O)ccc23)cc1C (centres unmarked) [Compound 177]
0 to 25	COc1ccc(C(=O)Nc2cccc3c(=O)n(CC(C)(C)O)ccc23)cc1Cl [Compound 192]
0 to 25	CCOc1ccc(C(=O)Nc2cccc3c(=O)n(CC(C)O)ccc23)c(O)c1 (centres unmarked) [Compound 124]
0 to 25	CC(O)Cn1ccc2c(NC(=O)c3cc(Cl)ccc3Cl)cccc2c1=O (centres unmarked) [Compound 138]
0 to 25	CC(O)Cn1ccc2c(NC(=O)Cc3ccc4c(c3)OCO4)cccc2c1=O (centres unmarked) [Compound 165]
0 to 25	CC(CO)n1ccc2c(NC(=O)CCCc3ccccc3)cccc2c1=O (centres unmarked) [Compound 111]
0 to 25	CC(O)Cn1ccc2c(NC(=O)CCCc3ccccc3)cccc2c1=O (centres unmarked) [Compound 163]
26 to 50	COc1ccc(OC)c(CC(=O)Nc2cccc3c(=O)n(CC(C)O)ccc23)c1 (centres unmarked) [Compound 156]

Same assay, conditions: 0.1 μM compound; differentiated THP-1 cells, BzATP 250 uM; "*" symbols; read-out: IL-1β % Inhib. @ 0.3 or 0.1 uM

inhibition at 0.1 µM [%]	SMILES
0 to 25	Cc1ccc(C)c(C(=O)Nc2cccc3c(=O)n(CC(C)(C)O)ccc23)c1 [Compound 202]
0 to 25	CC(C)(O)Cn1ccc2c(NC(=O)Cc3ccccc3F)cccc2c1=O [Compound 207]
0 to 25	Cc1c(Cl)cccc1C(=O)Nc1cccc2c(=O)n(CC(C)(C)O)ccc12 [Compound 225]
0 to 25	Cc1cc(C)cc(CC(=O)Nc2cccc3c(=O)n(CC(C)(C)O)ccc23)c1 [Compound 226]
0 to 25	CC(C)(O)Cn1ccc2c(NC(=O)c3ccc(Cl)cc3Cl)cccc2c1=O [Compound 198]

Same assay, conditions: 0.3 μM compound (symbols +); differentiated THP-1 cells, BzATP 250 uM; read-out: IL-1β % Inhib. @ 0.3 or 0.1 uM

inhibition at 0.3 µM [%]	SMILES
0 to 25	CS(=O)(=O)c1ccc(CCC(=O)Nc2cccc3c(=O)n(CCO)ccc23)cc1 [Compound 71]
0 to 25	O=C(Cc1cc(C(F)(F)F)ccc1Cl)Nc1cccc2c(=O)n(CCO)ccc12 [Compound 67]
26 to 50	O=C(Cc1cc(Cl)ccc1C(F)(F)F)Nc1cccc2c(=O)n(CCO)ccc12 [Compound 68]
0 to 25	CC(C)C(C(=O)Nc1cccc2c(=O)n(CCO)ccc12)c1ccc(Cl)cc1 (centres unmarked) [Compound 78]
26 to 50	O=C(CCc1cccc(Cl)c1)Nc1cccc2c(=O)n(CC3(O)CCCCC3)ccc12 [Compound 58]

Same assay, conditions: 0.3 μM compound; differentiated THP-1 cells, BzATP 250 uM; "+" symbols; read-out: IL-1β % Inhib. @ 0.3 or 0.1 uM

inhibition at 0.3 µM [%]	SMILES
51 to 75	CC(C)(CO)n1ccc2c(NC(=O)Cc3ccc(C(F)(F)F)cc3)cccc2c1=O [Compound 363]
0 to 25	C[C@@H](C(N)=O)n1ccc2c(NC(=O)Cc3ccc(Cl)nc3)cccc2c1=O [Compound 310]
> 76	C[C@H](CO)n1ccc2c(NC(=O)Cc3ccc(C(F)(F)F)c(F)c3)c(C3CC3)ccc2c1=O [Compound 384, N-[6-Cyclopropyl-2-((R)-2-hydroxy-1-methyl-ethyl)-1-oxo-1,2-dihydro-isoquinolin-5-yl]-2-(3-fluoro-4-trifluoromethyl-phenyl)-acetamide]
> 76	CC(=O)NCCn1ccc2c(NC(=O)Cc3ccc(Cl)c(C(F)(F)F)c3)cccc2c1=O [Compound 391]
> 76	C[C@H](C(N)=O)n1ccc2c(NC(=O)Cc3ccc(Cl)cc3C(F)(F)F)cccc2c1=O [Compound 241]
> 76	C[C@H](C(N)=O)n1ccc2c(NC(=O)Cc3cc(F)c(F)c(F)c3)cccc2c1=O [Compound 381]
> 76	C[C@H](C(N)=O)n1ccc2c(NC(=O)Cc3ccc(C(F)(F)F)cc3F)cccc2c1=O [Compound 296]
26 to 50	CC(C(=O)Nc1cccc2c(=O)n(C[C@H]3CCCN3)ccc12)c1ccc(Cl)cc1 (some centres unmarked) [Compound 242]
> 76	C[C@H](CO)n1ccc2c(NC(=O)Cc3ccc(C(F)(F)F)cc3F)c(Cl)ccc2c1=O [Compound 378]
> 76	C[C@@H](C(N)=O)n1ccc2c(NC(=O)Cc3ccc(F)c(C(F)(F)F)c3)cccc2c1=O [Compound 348]
51 to 75	C[C@@H](CO)n1ccc2c(NC(=O)Cc3ccc(Cl)c(F)c3)cccc2c1=O [Compound 334]
0 to 25	C[C@H](C(N)=O)n1ccc2c(NC(=O)Cc3cccc(C#N)c3)cccc2c1=O [Compound 288]
> 76	Cc1ccc(CC(=O)Nc2cccc3c(=O)n([C@H](C)C(N)=O)ccc23)cc1F [Compound 302]
51 to 75	C[C@H](C(=O)Nc1cccc2c(=O)n([C@@H](C)CO)ccc12)c1ccc(Cl)c(Cl)c1 [Compound 326]
> 76	O=C(Cc1ccc(Cl)c(Cl)c1)Nc1cccc2c(=O)n(C[C@H]3CCCN3)ccc12 [Compound 245]
26 to 50	C[C@H](C(N)=O)n1ccc2c(NC(=O)Cc3ccc(C#N)cc3)cccc2c1=O [Compound 287]
> 76	C[C@H](C(N)=O)n1ccc2c(NC(=O)Cc3cccc(Cl)c3)cccc2c1=O [Compound 255]
> 76	CNC(=O)[C@@H](CO)n1ccc2c(NC(=O)C(C)c3ccc(Cl)c(Cl)c3)cccc2c1=O (stereo partly drawn) [Compound 270, (R)-2-{5-[2-(3,4-Dichloro-phenyl)-propionylamino]-1-oxo-1H-isoquinolin-2-yl}-3-hydroxy-N-methyl-propionamide]
> 76	C[C@@H](CO)n1ccc2c(NC(=O)Cc3ccc(C(F)(F)F)c(F)c3)cccc2c1=O [Compound 336]
26 to 50	C[C@H](C(=O)Nc1cccc2c(=O)n([C@H](C)C(=O)O)ccc12)c1ccc(Cl)cc1 [Compound 322, (R)-2-{5-[(S)-2-(4-Chloro-phenyl)-propionylamino]-1-oxo-1H-isoquinolin-2-yl}-propionic acid]
0 to 25	CC(=O)NCCn1ccc2c(NC(=O)Cc3ccc(C(F)(F)F)c(F)c3)cccc2c1=O [Compound 390]

Same assay, conditions: THP-1 cells, BzATP 250 uM, IL-1β by ELISA

pIC50	SMILES
9.41	CC(=O)NCCn1ccc2c(NC(=O)Cc3ccc(Cl)c(C(F)(F)F)c3)cccc2c1=O [Compound 391]
6.45	CC(C(=O)Nc1cccc2c(=O)n(C[C@H]3CCCN3)ccc12)c1ccc(Cl)cc1 (some centres unmarked) [Compound 242]
< 6.00	CC(=O)NCCn1ccc2c(NC(=O)Cc3ccc(C(F)(F)F)c(F)c3)cccc2c1=O [Compound 390]
